Assay [1] relates to Her2 protein in MCF-7 breast cancer cells. Nature of the assay: Cell-based Her2 degradation assay by Western Blot. The following applies: Homo sapiens. From the text:
Addition of Hsp90 inhibitors to cancer cells induces the proteasomal degradation of a subset of proteins involved in signal transduction such as Raf1 kinase, Akt and certain transmembrane tyrosine kinases such as Her2. Thus, Her2 degradation in cells is a functional read-out of Hsp90 inhibition. Correlation between Hsp90 binding and Her2 degradation in cancer cells is indicative of a selective biological effect in these cells via Hsp90.
A Western blot-based assay was used to measure the cellular level of Her2 protein in MCF-7 breast cancer cell lysates collected after 24 hours of compound treatment. […] Then 2×10^5 cells were seeded in 24 well plates in 500 μl PRMI1640 medium and allowed to attach overnight. The compounds were dissolved in DMSO, added to the wells, and incubated for 24 hours. The cells were washed using ice-cold phosphate-buffered saline (PBS) and lysed in 1% NP40 lysis buffer (10 mM HEPES, pH 7.4, 150 mM NaCl, 1% Nonident P-40, 5 mM Pyrophosphate, 5 mM NaF, 2 mM Orthovanadate, 10 ug/ml Aprotinin, 10 ug/ml Leupeptin, 1 mM PMSF). After boiling with 6×SDS sample buffer, the cell lysates were separated by SDS-PAGE and transferred to nitrocellulose membrane. The membranes were blocked with 5% milk in tris-buffered saline buffer.

Assay [2] deals with tumor specific Hsp90 (NCI-N417 cell lysate). The experiment in a line: Hsp90 binding FP competition assay. The following applies: Table 1, GM-cy3B 5 nM. Details: species or system human. From the text: There are several assays that have been developed to identify novel Hsp90 inhibitors based on the interaction of small molecules with recombinant Hsp90 protein, either yeast or human. To measure a therapeutically significant state of Hsp90, an FP assay that uses human cancer cell lysates instead of recombinant protein (Du, Moulick et al. J. Biomol. Screen, 2007, 12, 915-24) was utilized. It probes the interaction of small molecules with tumor-specific Hsp90 and may therefore lead to inhibitors that are not only selective for cancer cells but also specific for a particular malignancy.
The dose-response effect of the compounds was tested in Hsp90 binding FP competition assays to obtain the IC50 of the compounds. The Hsp90 FP competition assay was performed in 384-well black plate using the small-cell lung carcinoma (SCLC) cell line NCI-N417 as a source of tumor specific Hsp90 and the Cy3B-labeled geldanamycin (GM-cy3B) as the FP ligand. The compound was dissolved in DMSO and added at several concentrations to the reaction buffer containing both GM-cy3B (5 nM) and NCI-N417 cell lysate (1 μg/well) in a final volume of 50 μL. Free GM-cy3B (5 nM) and bound GM-cy3B with NCI-N417 cell lysate (5 nM GM-cy3B and 1 μg/well of NCI-N417 cell lysate) were included as controls in each plate. After incubating at room temperature for 2 to 16 hours, the polarization values were measured and expressed as millipolarization (mP) units using Analyst HT plate reader (Molecular Devices). The competitive efficiency of the compounds were expressed as a percentage of control and calculated according to the following equation:
% of control=((mPc−mPf)/(mPb−mPf))×100
where mPc is the recorded mP from compound wells, mPf is the average recorded mP from GM-cy3B-only wells, and mPb is the average recorded mP from wells containing both GM-cy3B and NCI-N417 lysate. IC50 values were determined using a nonlinear regression analysis as implemented in Prism 4.0 (Graphpad Software).

The subject of assay [3] is SKBR3 breast cancer cells. Nature of the assay: Cancer cell growth inhibition assay (CellTiter-Blue). To be noted: Homo sapiens, SK-BR-3, Table 2, 96 hours. The format is cell-based. The method, then:
The effects of the compounds on cancer cell growth were determined using the CellTiter-Blue cell viability assay (Promega). CellTiter-Blue® Cell Viability is based on the ability of living cells to convert a redox dye (resazurin) into a fluorescent end product (resorufin).
The SKBR3 breast cancer cells were plated in 384-well microtiter plates (Costar) and allowed to attach overnight. After treatment with either compounds or vehicle (DMSO) for 96 hours, the cells were measured for their viability by CellTiter-Blue. Briefly, 10 μl of CelTiter-Blue were added to each well in 384-well plates and incubated at 37° C. for 4 hours. The fluorescence intensity (FI) was measured using the Analyst HT plate reader (Molecular Devices) with an excitation at 545 nm and emission at 595 nm. The IC50 was calculated as the compound concentration that inhibits cell viability by 50% compared with vehicle control wells. The IC50 values were determined as described above.

The mark [4] stands for this setting: MCF7, Table 1, MCF-7 cells, 24 hours of compound treatment, read-out: Her2 degradation WB IC50.
Setting [5] is: MCF7, 24 h, read-out: Her2 degradation WB IC50.

Like-named read-outs stand apart in the source and are kept apart here. Where only a bound is given, the exact number is not on record here.

On to `CN(C)C1=C(Cl)C(=O)C(=O)c2cccnc21` [Compound 5], for which the IC50 in assay [1] (setting [4]) was above 20 µM.

As to `CCOc1ccc(NC2=CC(=O)C(=O)c3ccccc32)cc1` [Compound 21], the IC50 in assay [1] (setting [4]) is around 10 µM; in assay [2], 1 µM.

Consider `O=C1C=C(Nc2ccccc2)c2ncccc2C1=O` [Compound 1], for which the IC50 in assay [1] (setting [4]) is around 2.5 µM.

As for `CN1CCN(C2=CC(=O)C(=O)c3ccccc32)CC1` [Compound 47], the IC50 is 5 to 10 µM in assay [1] (setting [4]) and 0.39 µM in assay [2].

Turning to `NC1=CC(=O)C(=O)c2cccnc21` [Compound 4], the IC50 in assay [1] (setting [4]) is above 20 µM.

Regarding `NC(=O)C(=O)CC(=O)c1ccccc1NC1=CC(=O)C(=O)c2ccccc21` [Compound 39], the half-inhibitory concentration (IC50) is above 30 µM in assay [1] (setting [4]) and 4.2 µM in assay [2].

Take `CCc1cccc(CC)c1NC1=CC(=O)C(=O)c2ccccc21` [Compound 34]: the IC50 in assay [1] (setting [5]) is above 30 µM; in assay [2], 3.55 µM.

As to `O=C1C(=O)c2cccnc2C(NC2CC3CCC2C3)=C1Cl` (stereo not shown) [Compound 2], in assay [1] (setting [4]), the IC50 was around 2.5 µM.

For the compound `O=C1C=C(Nc2cccc(Cl)c2)c2ccccc2C1=O` [Compound 28], the 50% inhibitory concentration (IC50) in assay [1] (setting [5]) was above 30 µM.

`CCN(CC)C1=C(Cl)C(=O)C(=O)c2cccnc21` [Compound 6]: the half-maximal inhibitory concentration (IC50) in assay [1] (setting [4]) is above 20 µM.

On to `O=C1C=C(Nc2cc(Cl)ccc2Cl)c2ccccc2C1=O` [Compound 33], for which the IC50 in assay [1] (setting [4]) is above 30 µM; in assay [2] it was 3.06 µM.

As to `CCN(CC)C1=CC(=O)C(=O)c2ccccc21` [Compound 48], the 50% inhibitory concentration (IC50) in assay [1] (setting [5]) is 5 to 10 µM; in assay [2] it was 0.69 µM.

Turning to `O=C1C=C(Nc2ccccc2C(=O)CC(=O)C(=O)Nc2ccc(Cl)c(Cl)c2)c2ccccc2C1=O` [Compound 40], the IC50 is above 30 µM in assay [1] (setting [4]) and 10.5 µM in assay [2].

Turning to `O=C1C=C(Nc2cccnc2)c2ccccc2C1=O` [Compound 16], the IC50 is around 10 µM in assay [1] (setting [4]) and 0.67 µM in assay [2].

Consider `CCCCCCN(CCCCCC)C1=CC(=O)C(=O)c2ccccc21` [Compound 38], for which the IC50 was around 30 µM in assay [1] (setting [4]) and 2.6 µM in assay [2].

In the case of `CC(C)c1cccc(C(C)C)c1NC1=CC(=O)C(=O)c2ccccc21` [Compound 44], the IC50 is above 30 µM in assay [1] (setting [4]) and 1.73 µM in assay [2].

On to `COc1cccc(NC2=CC(=O)C(=O)c3ccccc32)c1` [Compound 42], for which the concentration for half-maximal inhibition (IC50) in assay [1] (setting [4]) was around 10 µM; in assay [2] it was 0.81 µM.

In the case of `O=C1C=C(NCCc2ccccc2)c2ccccc2C1=O` [Compound 17], the figures for the concentration for half-maximal inhibition (IC50) in assay [1] (setting [4]) and in assay [2] were around 10 µM and 4 µM, respectively.

In the case of `Cc1ccc(NC2=CC(=O)C(=O)c3ccccc32)cc1C` [Compound 29], the figures for the IC50 in assay [1] (setting [4]) and in assay [2] were below 10 µM and 1.07 µM, respectively.

Regarding `Cc1ccc(NC2=CC(=O)C(=O)c3ccccc32)c(C(=O)O)c1` [Compound 68], the IC50 in assay [1] (MCF7, Table 2, values without asterisk, MCF-7 cells, 24 hours, read-out: IC50, Her2 degradation WB) was above 30 µM; in assay [3], above 20 µM.

Take `O=C1C=C(NCCCCC2CCCCC2)c2ccccc2C1=O` [Compound 22]: in assay [1] (setting [4]), the IC50 was above 30 µM. Besides, the “FP Assay IC50” value in assay [2] was “inactive”.

Regarding `N#CCCCCNC1=CC(=O)C(=O)c2cccnc21` [Compound 10], in assay [1] (setting [4]), the IC50 was around 10 µM.

For the compound `O=C1C=C(N2CCOCC2)c2ccccc2C1=O` [Compound 23], the IC50 in assay [1] (setting [5]) is around 10 µM; in assay [2], 0.63 µM.

Turning to `O=C1C=C(Nc2ccc(O)cc2)c2ccccc2C1=O` [Compound 43], the IC50 in assay [1] (setting [5]) was around 10 µM; in assay [2], below 0.39 µM.

With `O=C1C=C(Nc2ccc(Cl)cc2)c2ccccc2C1=O` [Compound 19], the IC50 is below 10 µM in assay [1] (setting [5]) and 0.68 µM in assay [2].

As for `O=C1C=C(Nc2cccc(Br)c2)c2ccccc2C1=O` [Compound 27], the IC50 in assay [1] (setting [4]) is above 30 µM.

Consider `C=CCN(CC=C)C1=CC(=O)C(=O)c2ccccc21` [Compound 24], for which the values for the concentration for half-maximal inhibition (IC50) in assay [1] (setting [4]) and in assay [2] were around 10 µM and 2.19 µM, respectively.

Take `O=C1C=C(Nc2cccc(C(=O)O)c2)c2ccccc2C1=O` [Compound 30]: the half-inhibitory concentration (IC50) was above 30 µM in assay [1] (setting [4]) and 1.33 µM in assay [2].

Consider `O=C1C=C(Nc2ccc(Cl)cc2Cl)c2ccccc2C1=O` [Compound 37], for which the IC50 is around 30 µM in assay [1] (setting [5]) and 4.7 µM in assay [2].

In the case of `Cc1ccc(NC2=CC(=O)C(=O)c3ccccc32)c(C)c1` [Compound 13], the IC50 in assay [1] (setting [5]) was below 5 µM; in assay [2], 1.85 µM.

Turning to `NC1=CC(=O)C(=O)c2ccccc21` [Compound 31], the concentration for half-maximal inhibition (IC50) in assay [1] (setting [4]) was 10 to 30 µM; in assay [2], 2.18 µM.

As to `CC(C)(C)OC(=O)N1CCN(C2=CC(=O)C(=O)c3ccccc32)CC1` [Compound 46], the figures for the 50% inhibitory concentration (IC50) in assay [1] (setting [4]) and in assay [2] were 5 to 10 µM and 0.22 µM, respectively.

On to `COc1ccc(NC2=CC(=O)C(=O)c3ccccc32)c([N+](=O)[O-])c1` [Compound 52], for which the results for the IC50 in assay [1] (setting [4]) and in assay [2] were above 10 µM and 0.23 µM, respectively.

For `CC(N)CCCNC1=CC(=O)C(=O)c2cccnc21` (stereo not shown) [Compound 11], in assay [1] (setting [4]), the IC50 lay within 2.5 to 5 µM.

As for `CN(C1=CC(=O)C(=O)c2ccccc21)c1ccccc1` [Compound 18], the figures for the IC50 in assay [1] (setting [5]) and in assay [2] were around 10 µM and 0.39 µM, respectively.

For `Cc1cc(Br)ccc1NC1=CC(=O)C(=O)c2ccccc21` [Compound 35], the figures for the half-inhibitory concentration (IC50) in assay [1] (setting [4]) and in assay [2] were above 30 µM and 3 µM, respectively.

For `O=C1C=C(Nc2ccccc2)c2ccccc2C1=O` [Compound 32], the IC50 in assay [1] (setting [5]) is below 30 µM; in assay [2], 7.4 µM.

For the compound `Cc1ccnc(NC2=CC(=O)C(=O)c3ccccc32)c1` [Compound 12], the IC50 is around 10 µM in assay [1] (setting [4]) and below 0.39 µM in assay [2].

Take `Cc1ccc(NC2=CC(=O)C(=O)c3ccccc32)cc1` [Compound 15]: the IC50 in assay [1] (setting [5]) is around 10 µM; in assay [2] it was 0.96 µM.

For `O=C1C=C(Nc2ncccn2)c2ccccc2C1=O` [Compound 14], the IC50 was 1 to 10 µM in assay [1] (setting [4]) and 0.45 µM in assay [2].

On to `Cc1ccc(C)c(NC2=CC(=O)C(=O)c3ccccc32)c1` [Compound 25], for which the IC50 in assay [1] (setting [5]) was above 30 µM; in assay [2] it was 1.59 µM.

For `Cc1cccc(C)c1NC1=CC(=O)C(=O)c2ccccc21` [Compound 26], the concentration for half-maximal inhibition (IC50) is above 10 µM in assay [1] (setting [5]) and 3.9 µM in assay [2].

On to `Cc1cccc(NC2=CC(=O)C(=O)c3ccccc32)c1` [Compound 41], for which the half-maximal inhibitory concentration (IC50) was at least 10 µM in assay [1] (setting [5]) and 1.06 µM in assay [2].

On to `O=C1C=C(Nc2ccc(Br)cc2)c2ccccc2C1=O` [Compound 36], for which the figures for the concentration for half-maximal inhibition (IC50) in assay [1] (setting [5]) and in assay [2] were around 30 µM and 1.4 µM, respectively.

Regarding `O=C1C=C(Nc2cccc(O)c2)c2ccccc2C1=O` [Compound 20], the IC50 in assay [1] (setting [4]) was around 10 µM; in assay [2], 0.6 µM.

Regarding `O=C1C(=O)c2cccnc2C(NCc2ccccc2)=C1Cl` [Compound 3], the 50% inhibitory concentration (IC50) in assay [1] (setting [4]) is around 2.5 µM.

For the origin of these results see patent publication US20120022070A1, “Heat Shock Protein 90 Inhibitors, Methods Of Preparing Same, And Methods For Their Use” (EMORY UNIVERSITY, priority 2008, published 2012).
